Laboratory results: patent US10954269B2, “Anti-inflammatory tripeptides” (Dr. August Wolff Gmbh & Co. KG Arzneimittel, priority 2013, dated 2021)

Columns and labels:
Details in all cases: substance 10^−9M
primary human T-cells = test: Cytokine secretion on protein level in activated primary human T-cells (13-plex FACS / Luminex, supernatant); format: cell-based
Method: (§1) Primary T-cells were isolated from peripheral blood from healthy volunteers and from secondary lymphatic organs from naïve C57BL/6 mice, respectively. The cells were stimulated with phorbol-12-myristate-13-acetate (PMA)/Ionomycin and interferon-gamma (IFN-γ), respectively, for 48 h to activate the cells. The activated cells release pro-inflammatory cytokines. In parallel a human (HaCaT) keratinocyte cell line was activated with PMA/Ionomycin and IFN-γ, respectively, too. […] At the same time release of anti-inflammatory IL-10 was inhibited. Two days after addition of PMA/Ionomycin and IFN-γ, respectively, the induction of IL-1 secretion was determined in the supernatant for proving that the cells are activated. […] The anti-inflammatory properties of the tripeptides were determined 48 h and 72 h following stimulation. A 13-plex-system based FACS analysis was used for showing the reduced secretion of pro-inflammatory cytokines in the supernatant. Data for IL-1, IL-2, IL-6, IL-12p70 IL-17, IFN-γ and TNF-α are considered to be most relevant. Thus, analysis of the anti-inflammatory properties of the tripeptides is preferably based on the results obtained for these analytes. […] Using this method the gene expression of pro-inflammatory markers like IL-6, IL-17, IFN-γ and TNF-α was determined.
(§2) In a third experiment murine and human T cells and HaCaT cells were stimulated with PMA/Ionomycin and treated with Examples 14, 15, 16 and 17 at 10^−7 M, 10^−9 M and 10^−11 M. Cytokine concentrations (IFN-γ, IL-17 and IL-10 for T cells and IFN-γ for HaCat) were assessed in the supernatants using the Luminex technology. Expression of genes coding for Il-1β, IL-6 and TNF-α was determined. […] Moreover, concentrations of pro-inflammatory cytokines IFN-γ and IL-17 was reduced in the supernatants whereas the concentration of anti-inflammatory cytokine IL-10 was increased. […]
(§3) For the biological assay two human cell lines of different origin were chosen to allow for translation of the results obtained. A HaCaT cell is a cell type belonging to an immortal human keratinocyte line used in scientific research. Its use in research allows for the characterization of human keratinocyte using a model that is reproducible and representing a human epithelial cell line. In contrast human T-lymphocytes (T-cells) are a type of lymphocyte (itself a type of white blood cell) that play a central role in cell-mediated inflammation/immunity.

[1] = tested on: human keratinocyte cell line (HaCaT); test: Cytokine secretion on protein level in activated human keratinocyte cell line HaCaT (13-plex FACS / Luminex, supernatant); format: cell-based
Method: as §1, §2, §3

primary murine T-cells = test: Cytokine secretion on protein level in activated primary murine T-cells (13-plex FACS / Luminex, supernatant); format: cell-based, C57BL/6 mice
Method: as §1
In a third experiment murine and human T cells and HaCaT cells were stimulated with PMA/Ionomycin and treated with Examples 14, 15, 16 and 17 at 10^−7 M, 10^−9 M and 10^−11 M. Cytokine concentrations (IFN-γ, IL-17 and IL-10 for T cells and IFN-γ for HaCat) were assessed in the supernatants using the Luminex technology. Expression of genes coding for Il-1β, IL-6 and TNF-α was determined. […] Moreover, concentrations of pro-inflammatory cytokines IFN-γ and IL-17 was reduced in the supernatants whereas the concentration of anti-inflammatory cytokine IL-10 was increased.
The anti-inflammatory and immunomodulatory effects of selected examples of the present invention were compared with common immunosuppressants. Thus, cells activated with PMA/Ionomycin and IFN-γ, respectively, were stimulated with MMF or dexamethasone. Following stimulation the secretion of pro-inflammatory cytokines was analyzed on protein and gene level (Table 9 and FIGS. 4-6).

[2] = primary human T-cells stimulated with IFN-γ
[3] = primary human T-cells stimulated with PBS
[4] = primary human T-cells stimulated with PMA/Ionomycin
[5] = HaCaT stimulated with PMA/Ionomycin
[6] = primary murine T-cells stimulated with IFN-γ
[7] = primary murine T-cells stimulated with PBS
[8] = primary murine T-cells stimulated with PMA/Ionomycin

C[C@@H]1C[C@H]2[C@@H]3CCC4=CC(=O)C=C[C@]4(C)[C@@]3(F)[C@@H](O)C[C@]2(C)[C@@]1(O)C(=O)CO [dexamethasone, reference compound]
IL-1 cytokine concentration (primary human T-cells; [2]): 0 pg/mL | IL-2 cytokine concentration (primary human T-cells; [2]): 0 pg/mL | IL-4 cytokine concentration (primary human T-cells; [2]): 0 pg/mL | IL-5 cytokine concentration (primary human T-cells; [2]): 0 pg/mL | IL-6 cytokine concentration (primary human T-cells; [2]): 56.47 pg/mL | IL-9 cytokine concentration (primary human T-cells; [2]): 0 pg/mL | IL-10 cytokine concentration (primary human T-cells; [2]): 0 pg/mL | IL-12 cytokine concentration (primary human T-cells; [2]): 0 pg/mL | IL-13 cytokine concentration (primary human T-cells; [2]): 0 pg/mL | IL-17 cytokine concentration (primary human T-cells; [2]): 0 pg/mL | IL-22 cytokine concentration (primary human T-cells; [2]): 0 pg/mL | TNF-α cytokine concentration (primary human T-cells; [2]): 0 pg/mL | IFN-γ cytokine concentration (primary human T-cells; [3]): 0 pg/mL | IL-1 cytokine concentration (primary human T-cells; [3]): 0 pg/mL | IL-2 cytokine concentration (primary human T-cells; [3]): 0 pg/mL | IL-4 cytokine concentration (primary human T-cells; [3]): 0 pg/mL | IL-5 cytokine concentration (primary human T-cells; [3]): 0 pg/mL | IL-6 cytokine concentration (primary human T-cells; [3]): 80.63 pg/mL | IL-9 cytokine concentration (primary human T-cells; [3]): 13.05 pg/mL | IL-10 cytokine concentration (primary human T-cells; [3]): 45.66 pg/mL | IL-12 cytokine concentration (primary human T-cells; [3]): 0 pg/mL | IL-13 cytokine concentration (primary human T-cells; [3]): 55.12 pg/mL | IL-17 cytokine concentration (primary human T-cells; [3]): 69.45 pg/mL | IL-22 cytokine concentration (primary human T-cells; [3]): 0 pg/mL | TNF-a cytokine concentration (primary human T-cells; [3]): 41.45 pg/mL | IFN-γ cytokine concentration (primary human T-cells; [4]): 888.61 pg/mL | IL-1 cytokine concentration (primary human T-cells; [4]): 448.69 pg/mL | IL-2 cytokine concentration (primary human T-cells; [4]): 2198.45 pg/mL | IL-4 cytokine concentration (primary human T-cells; [4]): 79.02 pg/mL | IL-5 cytokine concentration (primary human T-cells; [4]): 297.13 pg/mL | IL-6 cytokine concentration (primary human T-cells; [4]): 1078.6 pg/mL | IL-9 cytokine concentration (primary human T-cells; [4]): 392.74 pg/mL | IL-10 cytokine concentration (primary human T-cells; [4]): 799.85 pg/mL | IL-12 cytokine concentration (primary human T-cells; [4]): 0 pg/mL | IL-13 cytokine concentration (primary human T-cells; [4]): 1099.59 pg/mL | IL-17 cytokine concentration (primary human T-cells; [4]): 1134.18 pg/mL | IL-22 cytokine concentration (primary human T-cells; [4]): 0 pg/mL | TNF-a cytokine concentration (primary human T-cells; [4]): 3264.56 pg/mL | IL-1 cytokine concentration ([1]; HaCaT stimulated with IFN-γ): 0 pg/mL | IL-2 cytokine concentration ([1]; HaCaT stimulated with IFN-γ): 0 pg/mL | IL-4 cytokine concentration ([1]; HaCaT stimulated with IFN-γ): 39.78 pg/mL | IL-5 cytokine concentration ([1]; HaCaT stimulated with IFN-γ): 0 pg/mL | IL-6 cytokine concentration ([1]; HaCaT stimulated with IFN-γ): 204.99 pg/mL | IL-9 cytokine concentration ([1]; HaCaT stimulated with IFN-γ): 0 pg/mL | IL-10 cytokine concentration ([1]; HaCaT stimulated with IFN-γ): 0 pg/mL | IL-12 cytokine concentration ([1]; HaCaT stimulated with IFN-γ): 0 pg/mL | IL-13 cytokine concentration ([1]; HaCaT stimulated with IFN-γ): 0 pg/mL | IL-17 cytokine concentration ([1]; HaCaT stimulated with IFN-γ): 69.14 pg/mL | IL-22 cytokine concentration ([1]; HaCaT stimulated with IFN-γ): 0 pg/mL | TNF-α cytokine concentration ([1]; HaCaT stimulated with IFN-γ): 0 pg/mL | IFN-γ cytokine concentration ([1]; HaCaT stimulated with PBS): 12.98 pg/mL | IL-1 cytokine concentration ([1]; HaCaT stimulated with PBS): 0 pg/mL | IL-2 cytokine concentration ([1]; HaCaT stimulated with PBS): 0 pg/mL | IL-4 cytokine concentration ([1]; HaCaT stimulated with PBS): 133.98 pg/mL | IL-5 cytokine concentration ([1]; HaCaT stimulated with PBS): 0 pg/mL | IL-6 cytokine concentration ([1]; HaCaT stimulated with PBS): 44.79 pg/mL | IL-9 cytokine concentration ([1]; HaCaT stimulated with PBS): 0 pg/mL | IL-10 cytokine concentration ([1]; HaCaT stimulated with PBS): 30.89 pg/mL | IL-12 cytokine concentration ([1]; HaCaT stimulated with PBS): 0 pg/mL | IL-13 cytokine concentration ([1]; HaCaT stimulated with PBS): 0 pg/mL | IL-17 cytokine concentration ([1]; HaCaT stimulated with PBS): 0 pg/mL | IL-22 cytokine concentration ([1]; HaCaT stimulated with PBS): 0 pg/mL | TNF-α cytokine concentration ([1]; HaCaT stimulated with PBS): 0 pg/mL | IFN-γ cytokine concentration [1, 5]: 0 pg/mL | IL-1 cytokine concentration [1, 5]: 0 pg/mL | IL-2 cytokine concentration [1, 5]: 0 pg/mL | IL-4 cytokine concentration [1, 5]: 91.48 pg/mL | IL-5 cytokine concentration [1, 5]: 0 pg/mL | IL-6 cytokine concentration [1, 5]: 124.98 pg/mL | IL-9 cytokine concentration [1, 5]: 0 pg/mL | IL-10 cytokine concentration [1, 5]: 54.10 pg/mL | IL-12 cytokine concentration [1, 5]: 0 pg/mL | IL-13 cytokine concentration [1, 5]: 0 pg/mL | IL-17 cytokine concentration [1, 5]: 0 pg/mL | IL-22 cytokine concentration [1, 5]: 0 pg/mL | TNF-α cytokine concentration [1, 5]: 0 pg/mL | IL-1 cytokine concentration (primary murine T-cells; [6]): 64.89 pg/mL | IL-2 cytokine concentration (primary murine T-cells; [6]): 70.49 pg/mL | IL-4 cytokine concentration (primary murine T-cells; [6]): 61.11 pg/mL | IL-5 cytokine concentration (primary murine T-cells; [6]): 208.28 pg/mL | IL-6 cytokine concentration (primary murine T-cells; [6]): 108.76 pg/mL | IL-10 cytokine concentration (primary murine T-cells; [6]): 905.55 pg/mL | IL-13 cytokine concentration (primary murine T-cells; [6]): 0 pg/mL | IL-17 cytokine concentration (primary murine T-cells; [6]): 52.48 pg/mL | IL-21 cytokine concentration (primary murine T-cells; [6]): 0 pg/mL | IL-22 cytokine concentration (primary murine T-cells; [6]): 37.13 pg/mL | IL-27 cytokine concentration (primary murine T-cells; [6]): 21.29 pg/mL | TNF-α cytokine concentration (primary murine T-cells; [6]): 32.32 pg/mL | IFN-γ cytokine concentration (primary murine T-cells; [7]): 0 pg/mL | IL-1 cytokine concentration (primary murine T-cells; [7]): 50.19 pg/mL | IL-2 cytokine concentration (primary murine T-cells; [7]): 98.48 pg/mL | IL-4 cytokine concentration (primary murine T-cells; [7]): 64.23 pg/mL | IL-5 cytokine concentration (primary murine T-cells; [7]): 249.8 pg/mL | IL-6 cytokine concentration (primary murine T-cells; [7]): 88.47 pg/mL | IL-10 cytokine concentration (primary murine T-cells; [7]): 586.12 pg/mL | IL-13 cytokine concentration (primary murine T-cells; [7]): 0 pg/mL | IL-17 cytokine concentration (primary murine T-cells; [7]): 0 pg/mL | IL-21 cytokine concentration (primary murine T-cells; [7]): 0 pg/mL | IL-22 cytokine concentration (primary murine T-cells; [7]): 69.18 pg/mL | IL-27 cytokine concentration (primary murine T-cells; [7]): 84.69 pg/mL | TNF-α cytokine concentration (primary murine T-cells; [7]): 67.18 pg/mL | IFN-γ cytokine concentration (primary murine T-cells; [8]): 1777.98 pg/mL | IL-1 cytokine concentration (primary murine T-cells; [8]): 160.95 pg/mL | IL-2 cytokine concentration (primary murine T-cells; [8]): 97.41 pg/mL | IL-4 cytokine concentration (primary murine T-cells; [8]): 57.84 pg/mL | IL-5 cytokine concentration (primary murine T-cells; [8]): 198.45 pg/mL | IL-6 cytokine concentration (primary murine T-cells; [8]): 144.26 pg/mL | IL-10 cytokine concentration (primary murine T-cells; [8]): 899.74 pg/mL | IL-13 cytokine concentration (primary murine T-cells; [8]): 0 pg/mL | IL-17 cytokine concentration (primary murine T-cells; [8]): 76.12 pg/mL | IL-21 cytokine concentration (primary murine T-cells; [8]): 0 pg/mL | IL-22 cytokine concentration (primary murine T-cells; [8]): 97.01 pg/mL | IL-27 cytokine concentration (primary murine T-cells; [8]): 94.12 pg/mL | TNF-α cytokine concentration (primary murine T-cells; [8]): 36.25 pg/mL
